Results taken from publication PMC6274375, “Two New Pentacyclic Triterpene Saponins from the Leaves of Akebia trifoliata” (Molecules, 2016).

What was measured:
[1] = MTT cytotoxicity assay, HeLa cells; format: cell-based; conditions: human, mean ± SD (n = 3)
Description: (§1) Compounds 1–7 were testeded for their cytotoxity against A549 (human lung adenocarcinoma), HeLa (human cervical carcinoma) and HepG2 (human liver hepatocellular carcinoma) cell lines. The three tumor cell lines were obtained from Kunming Institute of Zoology, Chinese Academy of Sciences. The cytotoxic activity of tested chemicals were assayed according to the MTT method using 96 well plates. Briefly, the cells were cultured in RPMI-1640 medium, supplemented with 10% fetal bovine serum in a humidified atmosphere with 5% CO2 at 37 °C. 100 μL adherent cells at the density of 5 × 10^4 cell/mL was seeded into each well of 96-well cell culture plates and incubated in 5% CO2 at 37 °C for 24 h to form a monolayer on the flat bottoms. Then, the supernatant per well was removed and subsequently added with 100 μL fresh medium and 100 μL medium containing a test compound. The plate was then incubated in 5% CO2 at 37 °C. After 72 h, 20 μL of 5 mg/mL MTT in DMSO was added into each well and incubated for 4 h. The supernatant per well was carefully removed and 150 μL DMSO was added. The plate was then vortex shaken for 15 min to dissolve blue formazan crystals. The optical density (OD) of each well was measured on a Genois microplate reader (Tecan GENios, Männedorf, Switzerland) at the wavelength of 570 nm. All experiments were performed in triplicate and adriamycin was used as a positive control. In each experiment, each of the tumor cell lines was exposed to the test compound at concentrations 50, 25, 12.5, 6.25, 3.125, 1.5625 µg/mL. The inhibitory rate of cell growth was calculated according to the following formula: Inhibition rate (%) = (ODcontrol − ODtreated)/ODcontrol × 100%. IC50 values were calculated by SPSS 16.0 statistic software. The values were based on three individual experiments and expressed as means ± standard deviation (SD).

α-glucosidase = assay: α-Glucosidase inhibition assay (PNPG substrate); format: biochemical; conditions: pH 6.8, 37 °C, read-out: α-glucosidase inhibitory activity IC50
Description: The a-glucosidase inhibitory activity of 1–7 were determined spectrophotometrically in a 96-well microtiter plate based on p-nitrophenyl-α-D-glucopyranoside (PNPG) as a substrate following the method described in literature with slight modifications. In brief, α-glucosidase (20 μL, 0.8 U/mL) and various concentrations (500, 250, 125, 62.5, 31.25, 15.625 µg/mL) of tested compounds (120 μL) in 67 mM phosphate buffer (pH 6.8) were mixed at room temperature for 10 min. Reactions were initiated by addition of 5.0 mM PNPG (20 μL). The reaction mixture was incubated for 15 min at 37 °C in a final volume of 160 μL. Then, 0.2 M Na2CO3 (80 μL) was added to the incubation solution to stop the reaction. The activities were detected in a 96-well plate, and the absorbance was determined at 405 nm (for p-nitrophenol). The negative blank was set by adding phosphate buffer instead of the sample via the same way as the test. […] The blank was set by adding phosphate buffer instead of the α-glucosidase using the same method. Inhibition rate (%) = [(ODnegative control − ODblank) − (ODtest − ODtest blank)]/(ODnegative blank − ODblank) × 100%. IC50 values of the samples were calculated using the Microsoft Office Excel soft.

[2] = MTT cytotoxicity assay, HepG2 cells; format: cell-based; conditions: human, mean ± SD (n = 3)
Description: as §1

[3] = test system: human tumor A549, HeLa and HepG2 cell lines; assay: MTT cytotoxicity, summary statements over the three cell lines; format: cell-based; conditions: A549, HeLa and HepG2
Description: as §1

[4] = as above; format: cell-based, human; conditions: human, A549, HeLa and HepG2 cells (range over the three cell lines)
Description: as §1

[5] = MTT cytotoxicity assay, A549 cells; format: cell-based; conditions: human, mean ± SD (n = 3)
Description: as §1

[6] = range over A549, HeLa and HepG2 and over both compounds, read-out: Cytotoxicity IC50 values, range over all three cancer cell lines
[7] = range over the three cell lines and over both compounds, as given in abstract, read-out: Cytotoxicity IC50 values, range over A549, HeLa and HepG2

| Structure (SMILES) | IC50 at 72 h [1] [µM] | IC50 (α-glucosidase) [µM] | IC50 at 72 h [2] [µM] | In vitro cytotoxicity, result in words [3] | IC50 at 72 h [4, 6] [µM] | IC50 at 72 h [4, 7] [µM] | IC50 at 72 h [5] [µM] |
| --- | --- | --- | --- | --- | --- | --- | --- |
| CC1(C)CC[C@]2(C(=O)O)CC[C@]3(C)C(=CC[C@@H]4[C@@]5(C)C[C@@H](O)[C@H](O)[C@@](C)(CO)[C@@H]5CC[C@]43C)[C@@H]2C1 [Compound 7, arjunolic acid] | 24.4 ± 1.49 | 40 | 38.1 ± 1.63 | moderate in vitro cytotoxicity | 22.7 to 38.1 | 23 to 38 | 33.6 ± 3.13 |
| CC1(C)CC[C@]2(C(=O)O)CC[C@]3(C)C(=CCC4[C@@]5(C)C[C@@H](O)[C@H](O)[C@@](C)(C=O)C5CC[C@]43C)C2C1 (stereo partly drawn) [Compound 5, 2α,3β-dihydroxy-23-oxo-olean-12-en-28-oic acid] | 22.7 ± 1.96 | 47 | 38 ± 7.57 | moderate in vitro cytotoxicity | 22.7 to 38.1 | 23 to 38 | 30.2 ± 4.55 |
| C=C1CC[C@]2(C(=O)O)CC[C@]3(C)C(=CCC4[C@@]5(C)C[C@@H](O)[C@H](O)[C@@](C)(C=O)C5CC[C@]43C)C2C1 (stereo partly drawn) [Compound 6, 2α,3β-dihydroxy-23-oxo-30-norolean-12,20 (29)-dien-28-oic acid] | > 100 | 220 | > 100 |  |  |  | > 100 |
